US7413536B1, “Substrates and screening methods for transport proteins” (XenoPort, Inc., priority 1999, dated 2008)

Assays:
[1] = molecular target: T1, rat intestinal bile acid transporter (Rattus norvegicus, UniProt Q62633); test: Substrate activity for the intestinal bile acid transporter; assay type: cell-based
T1 sequence (Q62633 1-348): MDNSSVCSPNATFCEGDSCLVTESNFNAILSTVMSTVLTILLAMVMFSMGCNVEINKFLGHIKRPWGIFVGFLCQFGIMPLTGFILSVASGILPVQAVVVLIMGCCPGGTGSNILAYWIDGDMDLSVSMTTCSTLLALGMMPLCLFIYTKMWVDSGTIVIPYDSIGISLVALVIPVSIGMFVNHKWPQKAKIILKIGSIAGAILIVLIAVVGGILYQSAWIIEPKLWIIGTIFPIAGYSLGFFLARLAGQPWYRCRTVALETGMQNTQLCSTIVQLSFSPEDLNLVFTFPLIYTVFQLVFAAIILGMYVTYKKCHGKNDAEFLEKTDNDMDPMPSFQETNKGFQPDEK

Oral absorption in rat = assay type: in vivo

Molecule	substrate for the rat intestinal bile acid transporter [1]	hydrolysis upon oral absorption (uncharacterized amidase activity) releasing parent drug (Oral absorption in rat)	oral absorption (Oral absorption in rat; rat)
COc1ccc2cc(C(C)C(=O)NCCCCC(NC(=O)CCC(C)C3CCC4C5C(O)CC6CC(O)CCC6(C)C5CC(O)C34C)C(=O)O)ccc2c1 (stereo not shown) [Cholyl-Lysine-(ε-Naproxen)-OH]	retains activity	hydrolyzed	
cholyl-lys-(ε-NBD)-OH [cholyl-L-Lys-(ε-NBD)-OH]	substrate		effectively absorbed orally
